A value given as a limit tells only on which side of the number the result lay.

We go through 20 molecules from patent US12365692B2, “6-hydroxy-8-oxatricyclo[3.2.1.02,4]octane-2-carboxamide derivatives for inducing chondrogenesis for treating joint damage” (NOVARTIS AG, priority 2018, dated 2025).

The subject of the experiment is ALP in NHAC (normal human articular chondrocytes). Nature of the experiment: Alkaline Phosphatase (ALP) activity assay: ALP staining and quantitation in NHACs (prevention of chondrocyte hypertrophy). The class given is cell-based. As to conditions: Chondrocyte, 288 h, human IL-1 beta 10 ng/mL, 12 days; for IC50: Fast Blue RR staining, high content imaging; for Emax: read-out: ALP in NHAC (% Efficacy). The protocol: The compounds of the present invention were evaluated in the Alkaline Phosphatase (ALP) activity assay to determine the ability of the compounds to prevent chondrocyte hypertrophy in normal human articular chondrocytes (NHACs).
Normal human articular chondrocytes (NHACs) were purchased from PromoCell (Heidelberg, Germany) and grown in Chondrocyte Growth Medium (CGM; Lonza, Walkersville, Md.).
NHACs were expanded in Chondrocyte Growth Medium (CGM) from Lonza until they reached a 60-80% confluency. To initiate differentiation, 7,500 cells were plated/well with indicated test compound dose in 384-well Cell Carrier Ultra plates (Perkin Elmer) with DMEM (SH30022—HyClone) containing 10% FBS (35-015-CV—Corning), 1% Pen/Strep antibiotics (SV30010—HyClone), and 1% Normocin (50 mg/mL—InvivoGen). Cells with test compounds were incubated at 37° C., 5% CO2 for 5 hours and then added human IL-1 beta (AF-200-1B—Peprotech) to each well at a final concentration of 10 ng/mL and incubated at 37° C., 5% CO2 for 12 days.
To detect the presence of hypertrophic cells, NHACs were fixed with 4% paraformaldehyde and Hoechst 33342 (Invitrogen) dye for 30 minutes, rinsed in PBS, then stained with Fast Blue RR Salt (F0500—Sigma) with Naphthol AS-MX Phosphate Alkaline Solution, 0.25% (855—Sigma-Aldrich).
The staining was imaged by fluoresecent microscopy, using the 561 nm wavelength, and/or quantified by high content imaging with the ImageXpress Confocal (Molecular Devices, Sunnyvale, CA). Data analyses were performed with a customized multiwavelength cell-scoring application The activity of the compounds of the present invention in the ALP assay is summarized in Table 2.

Turning to `COc1cc([C@@]23C[C@]2(C(=O)Nc2cc(C(F)(F)F)cc(Cl)n2)[C@H]2C[C@H](O)[C@@H]3O2)ccn1` (racemic) [Example 21, rac-(1R,2R,4S,5R,6S)—N-(6-chloro-4-(trifluoromethyl)pyridin-2-yl)-6-hydroxy-4-(2-methoxypyridin-4-yl)-8-oxatricyclo[3.2.1.02,4]octane-2-carboxamide], the 50% inhibitory concentration (IC50) was above 30 µM and the Emax was determined as 0%.

For the molecule `COc1cc([C@@]23C[C@]2(C(=O)Nc2cc(C(F)(F)F)c(Cl)cn2)[C@H]2C[C@H](O)[C@@H]3O2)ccn1` (racemic) [Example 22, rac-(1R,2R,4S,5R,6S)—N-(5-chloro-4-(trifluoromethyl)pyridin-2-yl)-6-hydroxy-4-(2-methoxypyridin-4-yl)-8-oxatricyclo[3.2.1.02,4]octane-2-carboxamide], the IC50 is above 30 µM and the Emax was determined as 27%.

Turning to `COc1cc([C@@]23C[C@]2(C(=O)Nc2cc(C(F)(F)F)cc(C4CC4)n2)[C@H]2C[C@H](O)[C@@H]3O2)ccn1` (racemic) [Example 23, rac-(1R,2R,4S,5R,6S)—N-(6-cyclopropyl-4-(trifluoromethyl)pyridin-2-yl)-6-hydroxy-4-(2-methoxypyridin-4-yl)-8-oxatricyclo[3.2.1.02,4]octane-2-carboxamide], the IC50 is above 30 µM and the Emax was found to be 4%.

As to `COc1cc([C@@]23C[C@]2(C(=O)Nc2cc(C(F)(F)F)cc(C)n2)[C@H]2C[C@H](O)[C@@H]3O2)ccn1` (racemic) [Example 24, rac-(1R,2R,4S,5R,6S)-6-hydroxy-4-(2-methoxypyridin-4-yl)-N-(6-methyl-4-(trifluoromethyl)pyridin-2-yl)-8-oxatricyclo[3.2.1.02,4]octane-2-carboxamide], the IC50 is above 30 µM and the Emax came out at 25%.

With `CCOc1cc(C(F)(F)F)cc(NC(=O)[C@]23C[C@@]2(c2ccnc(OC)c2)[C@H]2O[C@@H]3C[C@@H]2O)n1` (racemic) [Example 25, rac-(1R,2R,4S,5R,6S)—N-(6-ethoxy-4-(trifluoromethyl)pyridin-2-yl)-6-hydroxy-4-(2-methoxypyridin-4-yl)-8-oxatricyclo[3.2.1.02,4]octane-2-carboxamide], the IC50 is above 30 µM and the Emax came to 0%.

Turning to `COc1cc([C@@]23C[C@]2(C(=O)Nc2cccc(C(F)(F)F)c2)[C@H]2C[C@H](O)[C@@H]3O2)ccn1` (racemic) [Example 26, rac-(1R,2R,4S,5R,6S)-6-hydroxy-4-(2-methoxypyridin-4-yl)-N-(3-(trifluoromethyl)phenyl)-8-oxatricyclo[3.2.1.02,4]octane-2-carboxamide], the half-inhibitory concentration (IC50) is above 30 µM and the Emax stood at 5%.

As for `COc1cc([C@@]23C[C@]2(C(=O)Nc2cccc(C(F)(F)F)c2C)[C@H]2C[C@H](O)[C@@H]3O2)ccn1` (racemic) [Example 27, rac-(1R,2R,4S,5R,6S)-6-hydroxy-4-(2-methoxypyridin-4-yl)-N-(2-methyl-3-(trifluoromethyl)phenyl)-8-oxatricyclo[3.2.1.02,4]octane-2-carboxamide], the half-maximal inhibitory concentration (IC50) was above 30 µM and the Emax is 0%.

Turning to `COc1cc([C@@]23C[C@]2(C(=O)Nc2ccc(C)c(C(F)(F)F)c2)[C@H]2C[C@H](O)[C@@H]3O2)ccn1` (racemic) [Example 28, rac-(1R,2R,4S,5R,6S)-6-hydroxy-4-(2-methoxypyridin-4-yl)-N-(4-methyl-3-(trifluoromethyl)phenyl)-8-oxatricyclo[3.2.1.02,4]octane-2-carboxamide], the IC50 was above 30 µM and the Emax came to 13%.

On to `COc1cc([C@@]23C[C@]2(C(=O)Nc2cc(C)cc(C(F)(F)F)c2)[C@H]2C[C@H](O)[C@@H]3O2)ccn1` (racemic) [Example 29, rac-(1R,2R,4S,5R,6S)-6-hydroxy-4-(2-methoxypyridin-4-yl)-N-(3-methyl-5-(trifluoromethyl)phenyl)-8-oxatricyclo[3.2.1.02,4]octane-2-carboxamide], for which the midpoint of inhibition, the IC50, lay at 10 µM and the Emax came out at 74%.

Take `COc1cc([C@@]23C[C@]2(C(=O)Nc2cc(C(F)(F)F)ccc2C)[C@H]2C[C@H](O)[C@@H]3O2)ccn1` (racemic) [Example 30, rac-(1R,2R,4S,5R,6S)-6-hydroxy-4-(2-methoxypyridin-4-yl)-N-(2-methyl-5-(trifluoromethyl)phenyl)-8-oxatricyclo[3.2.1.02,4]octane-2-carboxamide]: the IC50 is above 30 µM and the Emax was 27%.

On to `COc1cc([C@@]23C[C@]2(C(=O)Nc2cccc(C(F)(F)F)c2F)[C@H]2C[C@H](O)[C@@H]3O2)ccn1` (racemic) [Example 31, rac-(1R,2R,4S,5R,6S)—N-(2-fluoro-3-(trifluoromethyl)phenyl)-6-hydroxy-4-(2-methoxypyridin-4-yl)-8-oxatricyclo[3.2.1.02,4]octane-2-carboxamide], for which the IC50 is above 30 µM and the Emax came out at 15%.

With `COc1cc([C@@]23C[C@]2(C(=O)Nc2ccc(F)c(C(F)(F)F)c2)[C@H]2C[C@H](O)[C@@H]3O2)ccn1` (racemic) [Example 32, rac-(1R,2R,4S,5R,6S)—N-(4-fluoro-3-(trifluoromethyl)phenyl)-6-hydroxy-4-(2-methoxypyridin-4-yl)-8-oxatricyclo[3.2.1.02,4]octane-2-carboxamide], the IC50 was above 30 µM and the Emax turned out to be 4%.

Turning to `COc1cc([C@@]23C[C@]2(C(=O)Nc2cc(C(F)(F)F)ccc2F)[C@H]2C[C@H](O)[C@@H]3O2)ccn1` (racemic) [Example 33, rac-(1R,2R,4S,5R,6S)—N-(2-fluoro-5-(trifluoromethyl)phenyl)-6-hydroxy-4-(2-methoxypyridin-4-yl)-8-oxatricyclo[3.2.1.02,4]octane-2-carboxamide], the IC50 was above 30 µM and the Emax worked out at 12%.

Regarding `COc1cc([C@@]23C[C@]2(C(=O)Nc2ccc(OC)c(C(F)(F)F)c2)[C@H]2C[C@H](O)[C@@H]3O2)ccn1` (racemic) [Example 34, rac-(1R,2R,4S,5R,6S)-6-hydroxy-N-(4-methoxy-3-(trifluoromethyl)phenyl)-4-(2-methoxypyridin-4-yl)-8-oxatricyclo[3.2.1.02,4]octane-2-carboxamide], the IC50 was above 30 µM and the Emax came to 0%.

With `COc1cc(NC(=O)[C@]23C[C@@]2(c2ccnc(OC)c2)[C@H]2O[C@@H]3C[C@@H]2O)cc(C(F)(F)F)c1` (racemic) [Example 35, rac-(1R,2R,4S,5R,6S)-6-hydroxy-N-(3-methoxy-5-(trifluoromethyl)phenyl)-4-(2-methoxypyridin-4-yl)-8-oxatricyclo[3.2.1.02,4]octane-2-carboxamide], the IC50 is above 30 µM and the Emax amounted to 0%.

Take `COc1cc([C@@]23C[C@]2(C(=O)Nc2cc(C(F)(F)F)ccc2OC)[C@H]2C[C@H](O)[C@@H]3O2)ccn1` (racemic) [Example 36, rac-(1R,2R,4S,5R,6S)-6-hydroxy-N-(2-methoxy-5-(trifluoromethyl)phenyl)-4-(2-methoxypyridin-4-yl)-8-oxatricyclo[3.2.1.02,4]octane-2-carboxamide]: the midpoint of inhibition, the IC50, lay at 18 µM and the Emax was 65%.

On to `COc1cc([C@@]23C[C@]2(C(=O)Nc2cc(C(F)(F)F)cc(C(F)(F)F)c2)[C@H]2C[C@H](O)[C@@H]3O2)ccn1` (racemic) [Example 37, rac-(1R,2R,4S,5R,6S)—N-(3,5-bis(trifluoromethyl)phenyl)-6-hydroxy-4-(2-methoxypyridin-4-yl)-8-oxatricyclo[3.2.1.02,4]octane-2-carboxamide], for which the IC50 is above 30 µM and the Emax is 0%.

On to `COc1cc([C@@]23C[C@]2(C(=O)Nc2ccc(C#N)c(C(F)(F)F)c2)[C@H]2C[C@H](O)[C@@H]3O2)ccn1` (racemic) [Example 38, rac-(1R,2R,4S,5R,6S)—N-(4-cyano-3-(trifluoromethyl)phenyl)-6-hydroxy-4-(2-methoxypyridin-4-yl)-8-oxatricyclo[3.2.1.02,4]octane-2-carboxamide], for which it took 24 µM to reach half-maximal inhibition (IC50) and the Emax was 71%.

Turning to `COc1cc([C@@]23C[C@]2(C(=O)Nc2cc(C(F)(F)F)ccc2C#N)[C@H]2C[C@H](O)[C@@H]3O2)ccn1` (racemic) [Example 39, rac-(1R,2R,4S,5R,6S)—N-(2-cyano-5-(trifluoromethyl)phenyl)-6-hydroxy-4-(2-methoxypyridin-4-yl)-8-oxatricyclo[3.2.1.02,4]octane-2-carboxamide], the IC50 was 0.081 µM and the Emax stood at 92%.

On to `Cn1cc([C@@]23C[C@]2(C(=O)Nc2ccc(C(F)(F)F)c(Cl)c2)[C@H]2C[C@H](O)[C@@H]3O2)c(C(F)(F)F)n1` (racemic) [Example 40, rac-(1R,2R,4S,5R,6S)—N-(3-chloro-4-(trifluoromethyl)phenyl)-6-hydroxy-4-(1-methyl-3-(trifluoromethyl)-1H-pyrazol-4-yl)-8-oxatricyclo[3.2.1.02,4]octane-2-carboxamide], for which the IC50 is 9.5 µM and the Emax is 91%.
